Measurements taken from ChEMBL document CHEMBL5291721, “A preclinical secondary pharmacology resource illuminates target-adverse drug reaction associations of marketed drugs” (Nat Commun, 2023).

How the values were obtained:
[1] = target: T1, Alpha-2B adrenergic receptor (Homo sapiens, UniProt P18089)
T1 sequence (P18089 whole entry): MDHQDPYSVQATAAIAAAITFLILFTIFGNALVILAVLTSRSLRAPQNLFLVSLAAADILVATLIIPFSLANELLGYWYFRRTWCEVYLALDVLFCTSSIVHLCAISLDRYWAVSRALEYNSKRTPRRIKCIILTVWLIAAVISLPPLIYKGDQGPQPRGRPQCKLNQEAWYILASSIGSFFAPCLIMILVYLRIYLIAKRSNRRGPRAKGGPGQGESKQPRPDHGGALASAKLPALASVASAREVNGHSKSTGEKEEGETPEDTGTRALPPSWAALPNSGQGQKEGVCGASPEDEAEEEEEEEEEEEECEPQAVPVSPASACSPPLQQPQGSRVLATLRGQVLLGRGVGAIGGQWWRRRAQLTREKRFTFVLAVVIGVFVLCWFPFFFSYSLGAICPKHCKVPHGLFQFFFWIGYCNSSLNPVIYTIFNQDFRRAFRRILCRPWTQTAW

[2] = target: T2, Alpha-2C adrenergic receptor (Homo sapiens, UniProt P18825); type: functional
T2 sequence (P18825 whole entry): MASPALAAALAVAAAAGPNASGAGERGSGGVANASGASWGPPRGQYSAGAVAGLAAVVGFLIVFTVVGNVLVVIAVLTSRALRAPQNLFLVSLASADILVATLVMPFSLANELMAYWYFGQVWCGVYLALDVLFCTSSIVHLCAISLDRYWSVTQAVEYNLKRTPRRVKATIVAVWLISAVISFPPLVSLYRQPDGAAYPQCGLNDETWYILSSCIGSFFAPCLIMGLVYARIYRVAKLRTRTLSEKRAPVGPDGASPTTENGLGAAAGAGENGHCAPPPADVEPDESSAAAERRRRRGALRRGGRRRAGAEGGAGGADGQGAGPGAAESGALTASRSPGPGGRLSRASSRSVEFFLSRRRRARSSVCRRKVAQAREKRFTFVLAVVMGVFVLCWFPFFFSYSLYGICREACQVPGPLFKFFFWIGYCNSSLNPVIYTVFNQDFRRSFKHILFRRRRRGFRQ

Estrogen receptor = target: T3, Estrogen receptor (Homo sapiens, UniProt P03372)
T3 sequence (P03372 whole entry): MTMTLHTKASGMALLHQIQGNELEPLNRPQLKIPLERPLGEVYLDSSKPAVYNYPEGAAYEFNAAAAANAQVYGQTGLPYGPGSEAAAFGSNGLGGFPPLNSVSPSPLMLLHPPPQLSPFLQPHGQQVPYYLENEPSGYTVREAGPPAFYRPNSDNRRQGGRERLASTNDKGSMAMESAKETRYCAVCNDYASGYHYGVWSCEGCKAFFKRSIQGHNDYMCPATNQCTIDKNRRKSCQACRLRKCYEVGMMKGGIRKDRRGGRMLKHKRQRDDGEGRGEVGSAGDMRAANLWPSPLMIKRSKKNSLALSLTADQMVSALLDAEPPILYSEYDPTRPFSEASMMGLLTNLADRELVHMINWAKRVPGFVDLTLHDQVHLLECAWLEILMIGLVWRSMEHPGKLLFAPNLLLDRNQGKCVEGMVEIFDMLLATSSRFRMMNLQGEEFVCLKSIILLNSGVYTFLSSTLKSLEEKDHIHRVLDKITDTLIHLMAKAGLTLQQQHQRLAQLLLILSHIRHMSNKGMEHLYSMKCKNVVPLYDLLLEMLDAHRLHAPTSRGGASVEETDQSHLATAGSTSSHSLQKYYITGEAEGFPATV

[3] = target: 5-hydroxytryptamine receptor 2A (Homo sapiens, UniProt P28223); type: functional, cell-based
5-hydroxytryptamine receptor 2A, sequence (P28223 whole entry): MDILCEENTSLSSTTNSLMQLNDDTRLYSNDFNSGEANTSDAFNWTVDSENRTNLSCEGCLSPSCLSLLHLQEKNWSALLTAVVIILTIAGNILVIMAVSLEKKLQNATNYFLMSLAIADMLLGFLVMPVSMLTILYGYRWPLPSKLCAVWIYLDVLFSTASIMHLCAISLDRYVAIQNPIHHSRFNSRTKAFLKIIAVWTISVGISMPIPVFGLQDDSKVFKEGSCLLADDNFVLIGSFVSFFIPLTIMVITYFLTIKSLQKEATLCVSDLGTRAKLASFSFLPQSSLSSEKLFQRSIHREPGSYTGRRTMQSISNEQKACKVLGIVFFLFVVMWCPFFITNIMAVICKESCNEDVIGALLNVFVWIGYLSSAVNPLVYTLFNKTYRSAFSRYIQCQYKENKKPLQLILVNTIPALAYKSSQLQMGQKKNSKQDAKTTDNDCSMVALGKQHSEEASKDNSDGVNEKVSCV

Mu-type opioid receptor = Mu-type opioid receptor (Homo sapiens, UniProt P35372); assay: biochemical; type: functional
Mu-type opioid receptor, sequence (P35372 whole entry): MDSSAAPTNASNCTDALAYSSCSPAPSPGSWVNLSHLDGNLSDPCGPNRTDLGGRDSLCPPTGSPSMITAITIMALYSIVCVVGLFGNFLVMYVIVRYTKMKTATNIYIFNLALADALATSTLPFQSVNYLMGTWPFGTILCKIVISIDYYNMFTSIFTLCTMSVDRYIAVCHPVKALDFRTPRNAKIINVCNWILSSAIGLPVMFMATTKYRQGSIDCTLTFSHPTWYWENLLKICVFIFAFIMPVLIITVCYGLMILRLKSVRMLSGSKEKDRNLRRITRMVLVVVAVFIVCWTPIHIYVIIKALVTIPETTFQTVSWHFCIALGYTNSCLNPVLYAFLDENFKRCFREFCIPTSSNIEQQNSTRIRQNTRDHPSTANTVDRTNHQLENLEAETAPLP

Progesterone receptor = target: T4, Progesterone receptor (Homo sapiens, UniProt P06401); type: functional
T4 sequence (P06401 whole entry): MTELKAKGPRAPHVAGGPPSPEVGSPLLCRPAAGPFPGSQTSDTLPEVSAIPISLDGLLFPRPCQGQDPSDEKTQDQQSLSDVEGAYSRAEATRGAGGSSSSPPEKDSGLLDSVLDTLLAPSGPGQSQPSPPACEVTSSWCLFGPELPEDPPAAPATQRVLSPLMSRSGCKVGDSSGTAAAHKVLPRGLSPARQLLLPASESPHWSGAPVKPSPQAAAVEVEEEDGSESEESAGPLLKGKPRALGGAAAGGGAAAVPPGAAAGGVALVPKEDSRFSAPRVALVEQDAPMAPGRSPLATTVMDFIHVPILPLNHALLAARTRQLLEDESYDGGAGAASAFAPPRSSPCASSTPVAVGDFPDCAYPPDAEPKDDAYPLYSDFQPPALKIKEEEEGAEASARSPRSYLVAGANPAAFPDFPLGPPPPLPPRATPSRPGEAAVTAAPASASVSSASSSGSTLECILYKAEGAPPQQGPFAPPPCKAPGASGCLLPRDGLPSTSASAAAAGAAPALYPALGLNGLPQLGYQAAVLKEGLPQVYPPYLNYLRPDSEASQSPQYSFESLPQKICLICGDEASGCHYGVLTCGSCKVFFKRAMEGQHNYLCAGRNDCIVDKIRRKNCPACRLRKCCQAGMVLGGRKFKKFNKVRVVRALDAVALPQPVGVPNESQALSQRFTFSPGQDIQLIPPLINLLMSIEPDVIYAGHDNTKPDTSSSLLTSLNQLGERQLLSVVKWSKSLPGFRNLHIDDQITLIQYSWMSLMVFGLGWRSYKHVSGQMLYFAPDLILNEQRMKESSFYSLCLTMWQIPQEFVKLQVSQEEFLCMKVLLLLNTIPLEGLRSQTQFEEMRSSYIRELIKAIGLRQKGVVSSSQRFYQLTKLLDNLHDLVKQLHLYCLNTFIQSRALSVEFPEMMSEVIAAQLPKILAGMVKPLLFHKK

Histamine H3 receptor = Histamine H3 receptor (Homo sapiens, UniProt Q9Y5N1)
Histamine H3 receptor, sequence (Q9Y5N1 whole entry): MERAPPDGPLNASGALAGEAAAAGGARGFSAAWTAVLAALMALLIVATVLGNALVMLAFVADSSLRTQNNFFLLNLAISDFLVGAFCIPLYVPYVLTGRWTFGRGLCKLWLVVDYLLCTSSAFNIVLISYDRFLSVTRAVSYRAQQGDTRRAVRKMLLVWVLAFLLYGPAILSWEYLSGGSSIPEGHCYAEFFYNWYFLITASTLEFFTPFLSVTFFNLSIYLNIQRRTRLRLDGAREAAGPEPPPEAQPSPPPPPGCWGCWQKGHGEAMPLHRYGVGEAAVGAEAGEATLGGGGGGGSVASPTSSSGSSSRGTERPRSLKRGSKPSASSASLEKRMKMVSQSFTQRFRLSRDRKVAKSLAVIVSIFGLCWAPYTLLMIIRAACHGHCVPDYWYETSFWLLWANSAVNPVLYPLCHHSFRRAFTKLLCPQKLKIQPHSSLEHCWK
Also: assay procedure not described here.

Structure (SMILES)	AC50 [1]	AC50 [2]	AC50 (Estrogen receptor)	AC50 [3]	AC50 (Mu-type opioid receptor)	AC50 (Progesterone receptor)	AC50 (Histamine H3 receptor)
CCCOC(C(=O)OC1CCN(C)CC1)(c1ccccc1)c1ccccc1 [PROPIVERINE]	> 30 µM	> 30 µM	> 30 µM	> 30 µM	3.6 µM	> 30 µM	> 30 µM
CCCC[C@H](C)C[C@H](O)/C=C/[C@H]1[C@H](O)CC(=O)[C@@H]1CCCC/C=C/C(=O)O [LIMAPROST]	> 30 µM	> 30 µM	> 30 µM	> 30 µM	> 30 µM	> 30 µM	> 30 µM
Nc1nc(F)nc2c1ncn2[C@@H]1O[C@H](COP(=O)(O)O)[C@@H](O)[C@@H]1O [FLUDARABINE PHOSPHATE]	> 30 µM	> 30 µM	> 30 µM	> 30 µM	> 30 µM	> 30 µM	> 30 µM
N#Cc1ccccc1-c1cc(-c2ccccn2)cn(-c2ccccc2)c1=O	> 30 µM	> 30 µM	> 30 µM	> 30 µM	> 30 µM	> 30 µM	> 30 µM
CCCCC1(CC)C(=O)NC(=O)NC1=O [BUTETHAL]	> 30 µM	> 30 µM	> 30 µM	> 30 µM	> 30 µM	> 30 µM	> 30 µM
CCC(C)(Oc1ccc(C2(c3ccc(OC(C)(CC)C(=O)O)cc3)CCCCC2)cc1)C(=O)O (stereo unspecified) [CLINOFIBRATE]	> 30 µM	> 30 µM	> 30 µM	> 30 µM	> 30 µM	> 30 µM	> 30 µM
COc1cc2c(Nc3ccc(Br)cc3F)ncnc2cc1OCC1CCN(C)CC1 [VANDETANIB]	0.682 µM	0.856 µM	> 30 µM	> 30 µM	> 30 µM	> 30 µM	2.1 µM
Cc1ccc(NC(=O)C2(c3ccc4c(c3)OC(F)(F)O4)CC2)nc1-c1cccc(C(=O)O)c1 [LUMACAFTOR]	> 30 µM	> 30 µM	> 30 µM	> 30 µM	> 30 µM	> 30 µM	> 30 µM
